{
  "source": "patent US7022705B2",
  "about": "“Isoxazoline derivatives useful as antimicrobials” (AstraZeneca AB, priority 2001, dated 2006)",
  "assay_type_in_all_cases": "cell-based",
  "key": {"[1]": {"test_system": "Staphylococcus aureus MSQS (methicillin sensitive and quinolone sensitive)", "assay": "MIC, agar-dilution, Staphylococcus aureus MSQS", "details": "inoculum 10^4 CFU/spot, 37° C., 24 hours", "experimental": "(§1) The following results were obtained on a standard in-vitro test system. The activity is described in terms of the minimum inhibitory concentration (MIC) determined by the agar-dilution technique with an inoculum size of 10^4 CFU/spot. Typically, compounds are active in the range 0.01 to 256 μg/ml.\n(§2) Staphylococci were tested on agar, using an inoculum of 10^4 CFU/spot and an incubation temperature of 37° C. for 24 hours—standard test conditions for the expression of methicillin resistance."}, "[2]": {"test_system": "Staphylococcus aureus MRQR (methicillin resistant and quinolone resistant)", "assay": "MIC, agar-dilution, Staphylococcus aureus MRQR", "details": "inoculum 10^4 CFU/spot, 37° C., 24 hours", "experimental": "as §1, §2"}, "Streptococcus pneumoniae": {"test_system": "Streptococcus pneumoniae", "assay": "MIC, agar with 5% horse blood, Streptococcus pneumoniae", "details": "agar with 5% defibrinated horse blood, 10^4 CFU/spot, 37° C., 5% carbon dioxide, 48 hours", "experimental": "as §1\n(§3) Streptococci and enterococci were tested on agar supplemented with 5% defibrinated horse blood, an inoculum of 10^4 CFU/spot and an incubation temperature of 37° C. in an atmosphere of 5% carbon dioxide for 48 hours—blood is required for the growth of some of the test organisms. Fastidious Gram negative organisms were tested in Mueller-Hinton broth, supplemented with hemin and NAD, grown aerobically for 24 hours at 37° C., and with an innoculum of 5×10^4 CFU/well."}, "Streptococcus pyogenes": {"test_system": "Streptococcus pyogenes", "assay": "MIC, agar with 5% horse blood, Streptococcus pyogenes", "details": "agar with 5% defibrinated horse blood, 10^4 CFU/spot, 37° C., 5% carbon dioxide, 48 hours", "experimental": "as §1, §3"}, "Haemophilus influenzae": {"test_system": "Haemophilus influenzae", "assay": "MIC, Mueller-Hinton broth, Haemophilus influenzae", "details": "Mueller-Hinton broth with hemin and NAD, aerobic, 24 hours, 37° C., 5×10^4 CFU/well", "experimental": "as §1, §3"}, "Moraxella catarrhalis": {"test_system": "Moraxella catarrhalis", "assay": "MIC, Mueller-Hinton broth, Moraxella catarrhalis", "details": "Mueller-Hinton broth with hemin and NAD, aerobic, 24 hours, 37° C., 5×10^4 CFU/well", "experimental": "as §1, §3"}},
  "data": [
    {"smiles": "Fc1cc(C2=NOC(Cn3ccnn3)C2)ccc1N1CCNCC1", "note": "(racemic) [Example 7, (5RS)-3-(3-Fluoro-4-piperazin-1-ylphenyl)-5-(1,2,3-triazol-1-yl-methyl)-4,5-dihydroisoxazole]", "values": [
      {"measurement": "MIC", "setting": "[1]", "result": 8, "unit": "µg/mL"},
      {"measurement": "MIC", "setting": "[2]", "result": 16, "unit": "µg/mL"},
      {"measurement": "MIC", "setting": "Streptococcus pneumoniae", "result": 1, "unit": "µg/mL"},
      {"measurement": "MIC", "setting": "Streptococcus pyogenes", "result": 2, "unit": "µg/mL"},
      {"measurement": "MIC", "setting": "Haemophilus influenzae", "result": 32, "unit": "µg/mL"},
      {"measurement": "MIC", "setting": "Moraxella catarrhalis", "result": 32, "unit": "µg/mL"}
    ]}
  ]
}
